Holding throughout (assay): relative viability (nuclei count vs DMSO), 5 days (fraction); higher = more cells survive
Compound in assay [1]: CN1CCN(CC1)C2=CC(=C(C=C2)NC3=NC=C4C(=N3)N(C5=CC=CC=C5C(=O)N4C)C)OC [XMD8-85] + C[C@@H](Oc1cc(-c2cnn(C3CCNCC3)c2)cnc1N)c1c(Cl)ccc(F)c1Cl [Crizotinib] (partner 1 µM)
Put shortly:
(§1)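 Lung cancer cell lines, seeded in 1536-well plates, were treated the following day by pin tool with a single drug or with five library-drug doses (not always all listed) in √10 steps on top of a fixed anchor-drug dose. Cells were fixed and nuclei stained in one step after 5 days, and nuclei were counted. Relative viability is the nuclei count for treated wells divided by that for vehicle wells, reported as medians of duplicate plates.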

Compound in assay [2]: O=C(O)C(Cc1ccccc1[N+](=O)[O-])=NNc1nc(-c2ccc(Cl)c(Cl)c2)cs1 (mixture of isomers) [4EGI-1] + COc1cccc2cc(-c3nc([C@H]4CC[C@H](C(=O)O)CC4)n4ncnc(N)c34)[nH]c12 [OSI-027] (partner 0.5 µM)
Put shortly: as §1

Compound in assay [3]: CN1CCN(CC1)C2=CC(=C(C=C2)NC3=NC=C4C(=N3)N(C5=CC=CC=C5C(=O)N4C)C)OC [XMD8-85] + CCNC(=O)c1noc(-c2cc(C(C)C)c(O)cc2O)c1-c1ccc(CN2CCOCC2)cc1 [Luminespib] (partner 0.01 µM)
Put shortly: as §1

Compound in assay [4]: CN1CCN(CC1)C2=CC(=C(C=C2)NC3=NC=C4C(=N3)N(C5=CC=CC=C5C(=O)N4C)C)OC [XMD8-85] + Nc1nc2[nH]cc(CCc3ccc(C(=O)N[C@@H](CCC(=O)O)C(=O)O)cc3)c2c(=O)[nH]1 [Pemetrexed] (partner 0.2 µM)
The procedure, abridged:
as §1

NCI-H1944: the relative viability came out at 1.02 in assay [1] (first compound 0.08 µM); 0.999 in assay [1] (first compound 0.253 µM); 1.3 in assay [1] (first compound 0.8 µM); 1.35 in assay [1] (first compound 2.53 µM); 0.979 in assay [1] (first compound 8 µM); 0.427 in assay [2] (first compound 0.5 µM). Further, the relative viability in assay [2] (first compound 5 µM) worked out at 0.392; in assay [2] (first compound 15.81 µM), 0.307; in assay [2] (first compound 50 µM), 0.303; in assay [3] (first compound 0.08 µM), 0.658; in assay [3] (first compound 0.253 µM), 0.838; in assay [3] (first compound 0.8 µM), 0.751. The relative viability in assay [3] (first compound 2.53 µM) turned out to be 0.491; in assay [3] (first compound 8 µM), 0.507; in assay [4] (first compound 0.08 µM) it was 0.517; in assay [4] (first compound 0.253 µM) it was 0.72; in assay [4] (first compound 0.8 µM), 0.638; in assay [4] (first compound 2.53 µM), 0.615. The relative viability in assay [4] (first compound 8 µM) came out at 0.639.

With RERF-LC-KJ, the relative viability amounted to 0.881 in assay [1] (first compound 0.08 µM); 0.751 in assay [1] (first compound 0.253 µM); 0.807 in assay [1] (first compound 0.8 µM); 0.817 in assay [1] (first compound 2.53 µM); 0.658 in assay [1] (first compound 8 µM); 0.665 in assay [2] (first compound 0.5 µM). Also, the relative viability in assay [2] (first compound 5 µM) came out at 0.529; in assay [2] (first compound 15.81 µM) it was 0.413; in assay [2] (first compound 50 µM), 0.296; in assay [3] (first compound 0.08 µM), 1.32; in assay [3] (first compound 0.253 µM), 1.14; in assay [3] (first compound 0.8 µM), 1.3. Besides, the relative viability in assay [3] (first compound 2.53 µM) came to 1.1; in assay [3] (first compound 8 µM) it was 0.779; in assay [4] (first compound 0.08 µM), 0.46; in assay [4] (first compound 0.253 µM), 0.478; in assay [4] (first compound 0.8 µM), 0.484; in assay [4] (first compound 2.53 µM) it was 0.497. In addition, the relative viability in assay [4] (first compound 8 µM) is 0.43.

For NCI-H2085, the relative viability in assay [1] (first compound 0.08 µM) was found to be 0.76; in assay [1] (first compound 0.253 µM) it was 0.738; in assay [1] (first compound 0.8 µM) it was 0.795; in assay [1] (first compound 2.53 µM), 0.859; in assay [1] (first compound 8 µM), 0.559; in assay [2] (first compound 0.5 µM), 0.837. In addition, the relative viability was found to be 0.777 in assay [2] (first compound 1.581 µM); 0.704 in assay [2] (first compound 5 µM); 0.378 in assay [2] (first compound 15.81 µM); 0.428 in assay [2] (first compound 50 µM); 0.412 in assay [3] (first compound 0.08 µM); 0.513 in assay [3] (first compound 0.253 µM). Also, the relative viability in assay [3] (first compound 0.8 µM) worked out at 0.403; in assay [3] (first compound 2.53 µM) it was 0.348; in assay [3] (first compound 8 µM), 0.302; in assay [4] (first compound 0.08 µM), 0.889; in assay [4] (first compound 0.253 µM), 0.826; in assay [4] (first compound 0.8 µM), 0.849. The relative viability amounted to 0.811 in assay [4] (first compound 2.53 µM) and 0.713 in assay [4] (first compound 8 µM).

On to ChaGo-K-1, for which the relative viability amounted to 1.08 in assay [1] (first compound 0.08 µM); 1.15 in assay [1] (first compound 0.253 µM); 1.44 in assay [1] (first compound 0.8 µM); 0.887 in assay [1] (first compound 2.53 µM); 0.595 in assay [2] (first compound 0.5 µM); 0.526 in assay [2] (first compound 1.581 µM). The relative viability stood at 0.558 in assay [2] (first compound 5 µM); 0.483 in assay [2] (first compound 15.81 µM); 0.381 in assay [2] (first compound 50 µM); 0.603 in assay [3] (first compound 0.08 µM); 0.577 in assay [3] (first compound 0.253 µM); 0.71 in assay [3] (first compound 0.8 µM). For the same cell line, the relative viability in assay [3] (first compound 2.53 µM) was found to be 0.585; in assay [3] (first compound 8 µM) it was 0.501; in assay [4] (first compound 0.08 µM) it was 0.276; in assay [4] (first compound 0.253 µM), 0.268; in assay [4] (first compound 0.8 µM), 0.26; in assay [4] (first compound 2.53 µM), 0.248. Also, the relative viability in assay [4] (first compound 8 µM) turned out to be 0.232.

These data come from the supplement of paper PMC10307832.
